Data reported in PMC8536830 (Current Biology, 2021).

Experiments:
Format in all cases: cell-based, C. elegans
LGC-50 = biological target: T1, LGC-50 (Caenorhabditis elegans, UniProt P41849); test: Two-electrode voltage clamp, agonist-evoked currents in Xenopus oocytes expressing LGC-50
T1 construct: lgc-50 ORF F […]; expressed in transfected cells; host or cells: Xenopus laevis oocytes injected with cRNA (plasmid pJML002, KSM: lgc-50 cDNA)
T1 sequence (P41849 20-491): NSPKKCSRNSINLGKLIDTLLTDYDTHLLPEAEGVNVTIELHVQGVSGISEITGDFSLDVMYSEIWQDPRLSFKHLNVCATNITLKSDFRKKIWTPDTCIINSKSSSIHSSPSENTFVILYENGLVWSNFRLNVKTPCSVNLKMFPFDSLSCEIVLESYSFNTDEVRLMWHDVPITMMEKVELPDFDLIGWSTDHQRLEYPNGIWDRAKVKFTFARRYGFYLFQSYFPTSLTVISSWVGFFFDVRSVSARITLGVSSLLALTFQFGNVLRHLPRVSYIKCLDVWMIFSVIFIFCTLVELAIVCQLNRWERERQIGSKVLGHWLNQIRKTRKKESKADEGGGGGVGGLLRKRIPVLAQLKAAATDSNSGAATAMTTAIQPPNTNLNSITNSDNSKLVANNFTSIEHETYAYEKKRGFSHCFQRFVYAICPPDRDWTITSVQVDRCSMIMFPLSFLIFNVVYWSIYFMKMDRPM
Excerpt: We aimed to deorphanize C. elegans LGICs without known ligands, focusing on 5 genes in the putative monoamine-gated group: lgc-50; lgc-51; lgc-52; lgc-54; and lgc-56 (previously named ggr-3). Using heterologous overexpression in Xenopus oocytes and two-electrode voltage clamp recordings, we measured channel activity evoked by application of 11 monoamines and other neurotransmitters.
(§1) Defolliculated Xenopus laevis oocytes were obtained from EcoCyte Bioscience (Dortmund, Germany) and maintained in ND96 (in mM: 96 NaCl, 1 MgCl2, 5 HEPES, 1.8 CaCl2, 2 KCl) solution at 16°C for 3-5 days.
(§2) 5'-capped cRNA was synthesized in vitro using the T3 mMessage mMachine transcription kit according to manufacturer’s protocol (Thermo Fischer Scientific, CA, USA). RNA was then purified using the GeneJET RNA purification kit (Thermo Fischer Scientific, CA, USA) prior to cRNA injection. […]
(§3) Two-electrode voltage clamp recordings were carried out using the Robocyte2 recording system or a manual TEVC set up, using an OC-725D amplifier (Multi Channel Systems, Reutlingen, Germany) and paired with a custom-made recording chamber and agar bridges from reference and bath electrodes. […] Data was recorded using WinWCP or RoboCyte2 control software, manual data was filtered at 10 Hz.
Dose response curves were calculated from the peak current during a 10 s agonist stimulation in ND96 solution, with a 60 s ND96 wash in between doses. […] Normalized dose response data was fitted to a nonlinear curve using a four parameters variable slope and the EC50 and Hill slope was calculated. […] Ion selectivity was determined using a voltage ramp protocol of 20mV/s ranging from −80mV to +60mV in the presence or absence of the primary agonist in three different solutions: ND96, NMDG (Na^+ free) and Na Gluconate (low Cl^-) solutions. […] Antagonist dose response curves were calculated from the peak current during a 10 s agonist + antagonist stimulation in ND96 solution, with the agonist concentration remaining constant. […] Kinetic measurements were calculated from a 60 s agonist perfusion. […]

LGC-50 Δ363-397 = biological target: T2, LGC-50 Δ363-397 (Caenorhabditis elegans, UniProt P41849, DEL363-397); test: Two-electrode voltage clamp, 5-HT evoked dose response, LGC-50 deletion mutant Δ363-397
T2 construct: Plasmid: KSM: lgc-50 (cDNA, Δ363 - 397); expressed in transfected cells; host or cells: Xenopus laevis oocytes injected with cRNA (plasmid pJML138)
T2 sequence (P41849 other isoform, or with tags, fused parts or gaps DEL363-397): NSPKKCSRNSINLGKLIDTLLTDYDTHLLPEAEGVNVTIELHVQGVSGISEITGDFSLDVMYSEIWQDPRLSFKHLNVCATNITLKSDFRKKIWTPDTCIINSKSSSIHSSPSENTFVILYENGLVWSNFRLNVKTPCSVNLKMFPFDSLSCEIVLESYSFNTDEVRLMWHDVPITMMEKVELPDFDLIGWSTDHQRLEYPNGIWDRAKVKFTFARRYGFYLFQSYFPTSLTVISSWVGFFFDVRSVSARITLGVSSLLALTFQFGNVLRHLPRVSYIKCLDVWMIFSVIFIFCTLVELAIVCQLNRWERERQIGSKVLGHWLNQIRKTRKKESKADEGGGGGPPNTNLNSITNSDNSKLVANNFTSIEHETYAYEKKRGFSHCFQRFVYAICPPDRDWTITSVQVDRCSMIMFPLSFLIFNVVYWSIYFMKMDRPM
Experimental: (§4) To identify such domains, we tested the effects of deletion mutations in the LGC-50 M3/4 loop (Figure 5A).
as §1, §2, §3
(§5) Dose response curves were calculated from the peak current during a 10 s agonist stimulation in ND96 solution, with a 60 s ND96 wash in between doses. […] Normalized dose response data was fitted to a nonlinear curve using a four parameters variable slope and the EC50 and Hill slope was calculated. […] Kinetic measurements were calculated from a 60 s agonist perfusion. […]

LGC-50 Δ363-379 = biological target: T3, LGC-50 Δ363-379 (Caenorhabditis elegans, UniProt P41849, DEL363-379); test: Two-electrode voltage clamp, 5-HT evoked dose response, LGC-50 deletion mutant Δ363-379
T3 construct: Plasmid: KSM: lgc-50 (cDNA, Δ363-379); expressed in transfected cells; host or cells: Xenopus laevis oocytes injected with cRNA (plasmid pIH142)
T3 sequence (P41849 other isoform, or with tags, fused parts or gaps DEL363-379): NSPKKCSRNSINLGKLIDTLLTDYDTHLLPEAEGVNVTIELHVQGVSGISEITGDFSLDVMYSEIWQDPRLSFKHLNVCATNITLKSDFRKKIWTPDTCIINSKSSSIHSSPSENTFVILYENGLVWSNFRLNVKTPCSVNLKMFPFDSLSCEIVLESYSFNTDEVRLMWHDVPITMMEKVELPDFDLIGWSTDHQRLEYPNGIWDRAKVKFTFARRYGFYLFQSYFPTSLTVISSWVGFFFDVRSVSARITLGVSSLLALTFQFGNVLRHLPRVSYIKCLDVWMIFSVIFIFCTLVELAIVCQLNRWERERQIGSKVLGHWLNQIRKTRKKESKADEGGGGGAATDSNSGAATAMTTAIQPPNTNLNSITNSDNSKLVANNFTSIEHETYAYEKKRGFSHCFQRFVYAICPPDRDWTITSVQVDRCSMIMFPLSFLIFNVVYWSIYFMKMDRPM
Experimental: as §4, §1, §2, §3, §5

Q: How did the EC50 (LGC-50; Xenopus oocytes, TEVC, current normalized to Imax, Hill equation with variable slope, read-out: EC50, agonist-evoked dose response, LGC-50) turn out when NCCc1c[nH]c2ccc(O)cc12 [5-HT, serotonin] was run?
A: The EC50 was 940 nM.

Q: And the “Channel gating in ligand screen, LGC-50” value (LGC-50; ligands screened at 100 μM, oocytes clamped at −60 mV)?
A: The value was “gated”.

Q: What about the EC50 (LGC-50 Δ363-397) of the same compound?
A: The EC50 was 930 nM.

Q: What about the EC50 (LGC-50 Δ363-379) of the same compound?
A: Its EC50 is 930 nM.
